Literature values as cited in patent publication US20250049963A1, “GLYCOSYLATED DENDRIMERS FOR TARGETED INTRACELLULAR DELIVERY” (The Johns Hopkins University, priority 2021, published 2025).

Molecular target: T1, GLUT2 (Homo sapiens, UniProt P11168)
T1 sequence (P11168 1-524): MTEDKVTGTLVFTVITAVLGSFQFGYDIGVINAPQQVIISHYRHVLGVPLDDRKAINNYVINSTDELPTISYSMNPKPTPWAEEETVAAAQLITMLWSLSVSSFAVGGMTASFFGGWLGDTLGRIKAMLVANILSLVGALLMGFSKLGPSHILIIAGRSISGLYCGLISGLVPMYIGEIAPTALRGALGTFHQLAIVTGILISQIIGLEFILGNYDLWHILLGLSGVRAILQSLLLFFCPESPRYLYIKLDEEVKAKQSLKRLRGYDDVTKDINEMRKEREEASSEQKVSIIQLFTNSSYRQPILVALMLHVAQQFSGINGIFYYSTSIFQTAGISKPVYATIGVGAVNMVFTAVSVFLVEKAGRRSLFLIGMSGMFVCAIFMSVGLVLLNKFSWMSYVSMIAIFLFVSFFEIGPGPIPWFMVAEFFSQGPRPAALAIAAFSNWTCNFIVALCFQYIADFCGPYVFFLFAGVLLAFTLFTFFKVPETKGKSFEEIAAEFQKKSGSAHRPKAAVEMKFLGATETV
Conditions: cited from earlier work

## NC1C(O)[C@H](O)C(CO)O[C@@H]1O (stereo partly shown) [GlcN, glucosamine]
  affinity of GLUT2 for GlcN relative to glucose: ~20 fold
